The test deals with T1, ADP sensor (mTFP1-ParM-mVenus cp157 terminal fusion; ADPrime sensor, soluble form) (Escherichia coli, UniProt P11904, C287A/K33A/T174A/T175N).
T1 construct: ParM flanked by FRET reporters: wild-type mTFP1 via SGITS linker at N-terminus, mVenus-cp157 via AAA linker at C-terminus; expressed in E. coli DH5alpha
T1 sequence (P11904 1-320 K33A/T174A/T175N/C287A): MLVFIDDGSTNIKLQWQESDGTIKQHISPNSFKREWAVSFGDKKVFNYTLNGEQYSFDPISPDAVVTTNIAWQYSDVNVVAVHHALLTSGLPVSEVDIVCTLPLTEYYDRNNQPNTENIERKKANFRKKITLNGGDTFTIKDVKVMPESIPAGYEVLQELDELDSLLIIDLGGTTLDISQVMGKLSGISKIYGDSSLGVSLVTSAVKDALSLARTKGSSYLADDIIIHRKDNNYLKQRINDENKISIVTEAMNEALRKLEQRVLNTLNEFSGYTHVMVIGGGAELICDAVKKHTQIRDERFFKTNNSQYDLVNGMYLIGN
In words: FRET ratio (mTFP1/mVenus) dose response, Hill fit. It is filed as binding. The note with it: read-out: apparent Kd.

The values that follow come from PMC6695626, “Detection of Osmotic Shock-Induced Extracellular Nucleotide Release with a Genetically Encoded Fluorescent Sensor of ADP and ATP” (Sensors (Basel, Switzerland), 2019).

Take `Nc1ncnc2c1ncn2[C@@H]1O[C@H](COP(=O)(O)OP(=O)(O)OP(=O)(O)O)[C@@H](O)[C@H]1O` [ATP]: the Kd was found to be 9.9 ± 6.3 µM. In the case of `Nc1ncnc2c1ncn2[C@@H]1O[C@H](COP(=O)(O)OP(=O)(O)O)[C@@H](O)[C@H]1O` [ADP], the Kd stood at 0.16 ± 0.06 µM.
